# Test results reported in paper PMC7251097, “Aspartate/asparagine-β-hydroxylase: a high-throughput mass spectrometric assay for discovery of small molecule inhibitors” (Scientific Reports, 2020).
# Counter-ions that a name gives are not always drawn. Like-named read-outs stand apart in the source and are kept apart here.
# Target: T1, His6-AspH315–758 (human aspartate/asparagine-β-hydroxylase, AspH) (Homo sapiens, UniProt Q12797)
# T1 construct: N-Terminally His6-tagged human AspH315–758 (His6-AspH315–758) was produced in E. coli BL21 (DE3) cells; made in house; host or cells: E. coli BL21 (DE3), pET-28a(+) vector
# T1 sequence (Q12797 315-758): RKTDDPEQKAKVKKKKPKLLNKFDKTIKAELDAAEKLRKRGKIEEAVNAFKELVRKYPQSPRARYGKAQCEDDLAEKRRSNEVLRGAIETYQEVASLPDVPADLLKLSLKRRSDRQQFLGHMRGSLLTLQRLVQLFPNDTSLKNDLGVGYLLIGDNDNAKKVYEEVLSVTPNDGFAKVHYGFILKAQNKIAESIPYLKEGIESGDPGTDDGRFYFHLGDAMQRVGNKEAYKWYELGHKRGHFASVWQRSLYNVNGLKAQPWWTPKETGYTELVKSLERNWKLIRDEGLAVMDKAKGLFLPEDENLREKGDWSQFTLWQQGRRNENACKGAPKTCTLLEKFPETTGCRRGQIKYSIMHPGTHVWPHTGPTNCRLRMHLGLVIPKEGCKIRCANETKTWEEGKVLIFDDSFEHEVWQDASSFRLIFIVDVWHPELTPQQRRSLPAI
# Assay: SPE-MS AspH inhibition assay (LOPAC screen at fixed 20 μM and IC50 dose-response), hydroxylation of cyclic peptide hFX-CP101–119
# Assay type: biochemical
# Conditions: for Plate 5 (% inhibition) / Plate 5 (% conversion): plate 5 (Pfitzer), test compounds at fixed 20 μM; for Plate 5 (% conversion): mean conversion DMSO 32.88
# [1] = LOPAC compound at 20uM, plate 2, conversion of substrate peptide
# [2] = LOPAC compound at 20uM, plate 2, normalised to DMSO and 2,4-PDCA controls, read-out: Plate 2 (% inhibition)
# [3] = LOPAC compound at 20uM, plate 2, normalised to DMSO and 2,4-PDCA controls
# [4] = LOPAC compound at fixed 20 uM, plate 1, normalised to DMSO and 2,4-PDCA controls
# [5] = LOPAC compound at fixed 20 uM, substrate conversion, plate 1
# [6] = LOPAC Plate 4, compound at 20 uM, substrate conversion
# [7] = LOPAC Plate 4, compound at 20 uM, read-out: % inhibition
# [8] = read-out: Plate 2 (% inhibition)
# [9] = LOPAC compound at 20uM, conversion of substrate peptide
molecule,measurement,setting,value
"O=C1NC(=O)C(c2ccccc2)(c2ccccc2)N1 [5,5-Diphenylhydantoin]",Plate 2 (% conversion),[1],35.84%
same,inhibition at 20 µM,[2],0.33%
Oc1cc(-c2ccccc2)nc2nc(Cl)ccc12,Plate 1 (% conversion),,39.07%
same,Plate 1 (% inhibition),,-9.52%
KRM-III,Plate 2 (% conversion),[1],30.60%
same,Plate 2 (% inhibition),[3],15.99%
COC(=O)[C@H]1[C@H]2C[C@@H]3c4[nH]c5cc(OC)ccc5c4CCN3C[C@H]2C[C@@H](OC(=O)c2cc(OC)c(OC)c(OC)c2)[C@@H]1OC [Reserpine],Plate 1 (% inhibition),[4],-13.78%
same,Plate 1 (% conversion),[5],40.50%
CC1CCN=C(N)S1.Cl (racemic) [(±)-AMT hydrochloride],Plate 1 (% conversion),,36.89%
same,Plate 1 (% inhibition),,-3.04%
CCCCN(CCCC)CC(O)c1cc(Cl)cc2c1-c1ccc(Cl)cc1/C2=C/c1ccc(Cl)cc1 (stereo not shown) [Lumefantrine],Plate 1 (% inhibition),[4],-1.89%
same,Plate 1 (% conversion),[5],36.51%
CN1CC[C@@]2(C)c3cc(O)ccc3N(C)[C@@H]12.O=C(O)/C=C/C(=O)O [(-)-Eseroline fumarate],Plate 2 (% conversion),,19.71%
same,Plate 2 (% inhibition),20 µM,48.52%
Cc1ccc(S(=O)(=O)NC(=O)NN2CCCCCC2)cc1 [Tolazamide],% conversion,[6],36.66%
CN1[C@@H]2CC[C@H]1C[C@@H](OC(=O)C(CO)c1ccccc1)C2 (stereo partly shown) [Atropine sulfate],Plate 1 (% inhibition),,2.77%
CN1[C@@H]2CC[C@H]1C[C@@H](OC(c1ccccc1)c1ccccc1)C2 [Benztropine mesylate],Plate 1 (% inhibition),[4],-9.74%
same,Plate 1 (% conversion),[5],39.14%
Nc1ccc(N2C(=O)c3ccccc3C2=O)c(Cl)c1 [N-(4-Amino-2-chlorophenyl)phthalimide],Plate 1 (% inhibition),[4],-9.54%
same,Plate 1 (% conversion),[5],39.07%
CCCNC(=O)NS(=O)(=O)c1ccc(Cl)cc1 [Chlorpropamide],Plate 1 (% inhibition),[4],-3.59%
same,Plate 1 (% conversion),[5],37.08%
Cc1scc2c1N(C(=O)CN1CCN(C)CC1)c1ccccc1NC2=O [Telenzepine dihydrochloride],% conversion,[6],38.43%
same,inhibition at 20 µM,[7],-5.75%
trans-(±)-ACPD,Plate 1 (% conversion),,37.46%
same,Plate 1 (% inhibition),,-4.72%
Cc1cc(CCC[C@H](CC(=O)NO)C(=O)N[C@H](C(=O)N[C@H](C)c2ccccc2)C(C)(C)C)ccc1-c1ccccc1 [UK-356618],Plate 5 (% inhibition),,84.86%
same,Plate 5 (% conversion),,7.43%
CC[C@H]1CN2CCc3cc(OC)c(OC)cc3[C@@H]2C[C@@H]1C[C@H]1NCCc2cc(OC)c(OC)cc21 [Emetine dihydrochloride hydrate],Plate 2 (% conversion),,37.46%
same,inhibition at 20 µM,[8],-4.49%
O=C(c1ccc(F)cc1)C1CCN(CCn2c(=O)[nH]c3ccccc3c2=O)CC1 [Ketanserin tartrate],% conversion,[6],19.47%
(+)-Cyclazocine,Plate 2 (% conversion),,35.78%
same,Plate 2 (% inhibition),20 µM,0.54%
Cl.Cn1c(CCCC(=O)O)nc2cc(N(CCCl)CCCl)ccc21 [Bendamustine hydrochloride],Plate 2 (% conversion),,39.38%
same,Plate 2 (% inhibition),20 µM,-10.22%
CNCCC(Oc1ccc(C(F)(F)F)cc1)c1ccccc1 (stereo not shown) [Fluoxetine hydrochloride],Plate 2 (% conversion),[1],43.85%
same,inhibition at 20 µM,[2],-23.6%
Cc1cccc(C)c1NC(=O)CN1CCCC1=O [Nefiracetam],Plate 2 (% conversion),,34.89%
same,inhibition at 20 µM,[8],3.19%
CN(C)C(=O)Oc1ccc[n+](C)c1 [Pyridostigmine bromide],% conversion,,37.84%
COc1cc(NS(C)(=O)=O)ccc1Nc1c2ccccc2nc2ccccc12 [Amsacrine hydrochloride],Plate 1 (% inhibition),[4],-10.85%
same,Plate 1 (% conversion),[5],39.52%
C[C@@H]1CCN(C(=O)N2CCCC2)C[C@@H]1N(C)c1ncnc2[nH]ccc12 [PF-956980],Plate 5 (% inhibition),,16.28%
same,Plate 5 (% conversion),,30.77%
CC(NC(C)(C)C)C(=O)c1cccc(Cl)c1 (stereo not shown) [Bupropion hydrochloride],Plate 1 (% conversion),,38.01%
same,Plate 1 (% inhibition),,-6.38%
NS(=O)(=O)C#Cc1ccccc1 [Pifithrin-mu],% conversion,[6],31.04%
C#CC(N)CCC(=O)O (stereo not shown) [gamma-Acetylinic GABA],Plate 1 (% inhibition),[4],-4.92%
same,Plate 1 (% conversion),[5],37.52%
NC[C@@H]1O[C@H](O[C@H]2[C@@H](O)[C@H](O[C@@H]3[C@@H](O)[C@H](N)C[C@H](N)[C@H]3O[C@H]3O[C@H](CO)[C@@H](O)[C@H](O)[C@H]3N)O[C@@H]2CO)[C@H](N)[C@@H](O)[C@@H]1O [Paromomycin sulfate],% conversion,[6],37.25%
same,inhibition at 20 µM,[7],-2.28%
COC(=O)[C@@H](N)Cc1ccc(O)c(O)c1.Cl,Plate 2 (% conversion),[1],10.54%
same,Plate 2 (% inhibition),[3],75.90%
"N[C@@H](Cn1ccc(=O)c(O)c1)C(=O)O [L-Mimosine, reference compound]",IC50,"50 nM His6-AspH315–758, 1.0 μM hFX-CP101–119, 3 μM 2OG, 2 μM Fe(II), 50 mM HEPES pH 7.5, 20 °C, mean ± SD, n = 2 (2,4-PDCA n = 10), read-out: IC50",5.06 ± 0.28 µM
"Cn1c(=O)[nH]c2ncn(C)c2c1=O [1,7-Dimethylxanthine]",Plate 2 (% conversion),[1],35.50%
same,inhibition at 20 µM,[2],1.36%
CCCN(CCc1ccccc1)C1CCc2c(O)cccc2C1.Cl (racemic) [(±)-PPHT hydrochloride],% conversion,[6],27.49%
Nc1nc2c(nc(Br)n2[C@@H]2O[C@@H]3COP(=O)([O-])O[C@H]3[C@H]2O)c(=O)[nH]1.[Na+] [8-Bromo-cGMP sodium],Plate 1 (% inhibition),[4],5.25%
same,Plate 1 (% conversion),[5],34.11%
CC(C)C[C@H](NP(=O)([O-])O[C@H]1O[C@H](C)[C@@H](O)[C@H](O)[C@@H]1O)C(=O)N[C@@H](Cc1c[nH]c2ccccc12)C(=O)[O-].[Na+].[Na+] [Phosphoramidon disodium],% conversion,,33.86%
CN1CC[C@@]2(C)c3cc(OC(=O)Nc4ccccc4)ccc3N(C)[C@@H]12 [Phenserine],Plate 2 (% conversion),,38.49%
same,inhibition at 20 µM,[8],-7.56%
Cc1cc2c(cc1Cl)N(C(=O)Nc1cccc3ncccc13)CC2 [SB-215505],Plate 3 (% conversion),[9],42.68%
Cl.c1ccc2nc(C3=NCCN3)ccc2c1 [BU224 hydrochloride],Plate 1 (% inhibition),[4],-5.25%
same,Plate 1 (% conversion),[5],37.63%
CCCN1CCC[C@@H]2Cc3nc(N)ncc3C[C@H]21.Cl.Cl [Quinelorane dihydrochloride],% conversion,[6],33.91%
CC(C)NC[C@H](O)COc1cccc2ccccc12 [(S)-Propranolol hydrochloride],% conversion,[6],27.07%
OCCN(CCO)c1nc(N2CCCCC2)c2nc(N(CCO)CCO)nc(N3CCCCC3)c2n1 [Dipyridamole],Plate 2 (% conversion),[1],42.60%
same,inhibition at 20 µM,[2],-19.9%
Br.CN1CCc2cc(O)cc3c2[C@H]1Cc1ccc(O)c(O)c1-3,Plate 2 (% conversion),[1],6.73%
same,Plate 2 (% inhibition),[3],87.29%
c1ccc(C2CC2)c(OCC2=NCCN2)c1 [Cirazoline hydrochloride],Plate 2 (% conversion),[1],38.17%
same,inhibition at 20 µM,[2],-6.62%
COCC(=O)O[C@]1(CCN(C)CCCc2nc3ccccc3[nH]2)CCc2cc(F)ccc2[C@@H]1C(C)C [Mibefradil dihydrochloride],Plate 3 (% conversion),[9],62.31%
"C[N+]1(C)[C@@H]2CC(OC(=O)[C@H](CO)c3ccccc3)C[C@H]1[C@@H]1O[C@@H]12.O=[N+]([O-])[O-] (single isomer, unassigned; (-)) [(-)-Scopolamine methyl nitrate]",% conversion,,25.39%
NCCCNCCSP(=O)(O)O [Amifostine],Plate 1 (% conversion),,40.67%
same,Plate 1 (% inhibition),[4],-14.28%
CN1CCN(CCCN2c3ccccc3Sc3ccc(Cl)cc32)CC1 [Prochlorperazine dimaleate],% conversion,[6],48.18%
CC(=O)O[C@]1(C(C)=O)CC[C@H]2[C@@H]3C=C(Cl)C4=CC(=O)[C@@H]5C[C@@H]5[C@]4(C)[C@H]3CC[C@@]21C [Cyproterone acetate],Plate 1 (% inhibition),[4],-9.70%
same,Plate 1 (% conversion),[5],39.13%
CC(N)(Cc1ccc(O)cc1)C(=O)O (racemic) [DL-alpha-Methyl-p-tyrosine],Plate 1 (% conversion),,33.46%
same,Plate 1 (% inhibition),,7.19%
C[C@]12CCC(=O)C=C1CC[C@@H]1[C@@H]2[C@@H](O)C[C@@]2(C)[C@H]1CC[C@]2(O)C(=O)CO [Hydrocortisone],Plate 2 (% conversion),[1],37.93%
same,inhibition at 20 µM,[2],-5.89%
Clc1cccc(Cl)c1N=C1NCCN1 [Clonidine hydrochloride],Plate 1 (% inhibition),[4],-13.86%
same,Plate 1 (% conversion),[5],40.53%
CC1(C)CCC(NC(=O)[C@@H](N)CCC(=O)O)CC1 [CR 2249],Plate 3 (% conversion),[9],40.87%
CCc1cccc2c3c([nH]c12)C(CC)(CC(=O)O)OCC3 (stereo not shown) [Etodolac],Plate 2 (% conversion),[1],36.91%
same,inhibition at 20 µM,[2],-2.84%
CCN(CC)CCNC(=O)c1ccc(N)cc1 [Procainamide hydrochloride],% conversion,[6],38.98%
same,inhibition at 20 µM,[7],-7.36%
